Data taken from patent US20230131899A1, “INHIBITORS OF MICROBIALLY INDUCED AMYLOID” (Axial Therapeutics, Inc., priority 2020, published 2023).
Like-named read-outs stand apart in the source and are kept apart here.

Test system: CsgA gene expression (csgBAC promoter-GFP reporter) in E. coli UTI89
Assay: In vitro live cell fluorescent reporter assay of CsgA transcription (Reporter Assay)
Type: cell-based
Conditions: Escherichia coli
Procedure, shortened: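 Compounds at 0.14–100 μM (1% DMSO final) incubated 20 h at 27 °C in YESCA broth with UTI89 carrying a single-copy GFP reporter under the csgBAC intergenic promoter region, inoculum OD600 0.003. Fluorescence normalized to vehicle wells gave IC50 and 50%-of-vehicle concentration; OD600 reduction >10% flagged growth impact.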

[1] = read-out: Reporter Assay Abs IC50 (activity range), median Abs IC50 in the CsgA reporter assay, class symbol
[2] = read-out: Reporter Assay Abs IC50 (μM), median Abs IC50 in the CsgA reporter assay, N/A = maximum expression reduction is <50% of control

O=C(O)C1CSc2c(-c3cccc(C(F)(F)F)c3)c(Cc3cccc4ccccc34)cc(=O)n21 (single isomer, unassigned) [Compound 011a, 7-(naphthalen-1-ylmethyl)-5-oxo-8-(3-(trifluoromethyl)phenyl)-2,3-dihydro-5H-thiazolo[3,2-a]pyridine-3-carboxylic acid]
IC50 [1]: 1.3 to 4.5 µM | IC50 [2]: 4.4 µM

COc1ccc(CN2C[C@@H](C(=O)O)n3c(c(-c4cccc(C(F)(F)F)c4)c(Cc4cccc5ccccc45)cc3=O)S2(=O)=O)cc1 (single isomer, unassigned) [Compound 026a]
IC50 [1]: 1.3 to 4.5 µM | IC50 [2]: 2 µM

O=C(O)C1CN(CCCO)S(=O)(=O)c2c(-c3cccc(C(F)(F)F)c3)c(Cc3cccc4ccccc34)c(NC3CCCC3)c(=O)n21 (stereo not shown) [Compound 120, 7-(cyclopentylamino)-2-(3-hydroxypropyl)-8-(naphthalen-1-ylmethyl)-6-oxo-9-(3-(trifluoromethyl)phenyl)-3,4-dihydro-2H,6H-pyrido[1,2-e][1,2,5]thiadiazine-4-carboxylic acid 1,1-dioxide]
IC50 [1]: 1.3 to 4.5 µM | IC50 [2]: 3.1 µM

O=C(O)C1CSc2c(-c3cccc(C(F)(F)F)c3)c(Cc3cccc4ccccc34)nc(=O)n21 (stereo not shown) [Compound 022, 7-(naphthalen-1-ylmethyl)-5-oxo-8-(3-(trifluoromethyl)phenyl)-2,3-dihydro-5H-thiazolo[3,2-c]pyrimidine-3-carboxylic acid]
IC50 [1]: 1.3 to 4.5 µM | IC50 [2]: 4.1 µM

CN1CC(C(=O)O)n2c(c(-c3cccc(C(F)(F)F)c3)c(Cc3cccc4ccccc34)c(N)c2=O)S1(=O)=O (stereo not shown) [Compound 074, 7-amino-2-methyl-8-(naphthalen-1-ylmethyl)-6-oxo-9-(3-(trifluoromethyl)phenyl)-3,4-dihydro-2H,6H-pyrido[1,2-e][1,2,5]thiadiazine-4-carboxylic acid 1,1-dioxide]
IC50 [1]: > 10 µM | IC50 [2]: 29.2 µM

O=C(O)CN1CC(C(=O)O)n2c(c(-c3cccc(C(F)(F)F)c3)c(Cc3cccc4ccccc34)cc2=O)S1(=O)=O (stereo not shown) [Compound 018, 2-(carboxymethyl)-8-(naphthalen-1-ylmethyl)-6-oxo-9-(3-(trifluoromethyl)phenyl)-3,4-dihydro-2H,6H-pyrido[1,2-e][1,2,5]thiadiazine-4-carboxylic acid 1,1-dioxide]
IC50 [1]: > 10 µM | IC50 [2]: 148 µM

CN1CC(C(=O)O)n2c(c(-c3cccc(C(F)(F)F)c3)c(Cc3cccc4ccccc34)c(C(N)=O)c2=O)S1(=O)=O (stereo not shown) [Compound 109, 7-carbamoyl-2-methyl-8-(naphthalen-1-ylmethyl)-6-oxo-9-(3-(trifluoromethyl)phenyl)-3,4-dihydro-2H,6H-pyrido[1,2-e][1,2,5]thiadiazine-4-carboxylic acid 1,1-dioxide]
IC50 [1]: 1.3 to 4.5 µM | IC50 [2]: 1.9 µM

CCCN1CC(C(=O)O)n2c(c(-c3cccc(C(F)(F)F)c3)c(Cc3cccc4ccccc34)c(NC3CCCC3)c2=O)S1(=O)=O (stereo not shown) [Compound 126, 7-(cyclopentylamino)-8-(naphthalen-1-ylmethyl)-6-oxo-2-propyl-9-(3-(trifluoromethyl)phenyl)-3,4-dihydro-2H,6H-pyrido[1,2-e][1,2,5]thiadiazine-4-carboxylic acid 1,1-dioxide]
IC50 [1]: 1.3 to 4.5 µM | IC50 [2]: 1.9 µM

CN1CC(C(=O)O)n2c1c(-c1cccc(C(F)(F)F)c1)c(Cc1cccc3ccccc13)c(Br)c2=O (stereo not shown) [Compound 119, 6-bromo-1-methyl-7-(naphthalen-1-ylmethyl)-5-oxo-8-(3-(trifluoromethyl)phenyl)-1,2,3,5-tetrahydroimidazo[1,2-a]pyridine-3-carboxylic acid]
IC50 [1]: 1.3 to 4.5 µM | IC50 [2]: 2.5 µM

O=C(O)C1C[S+]([O-])c2c(-c3cccc(C(F)(F)F)c3)c(Cc3cccc4ccccc34)cc(=O)n21 (racemic) [Compound 027b, 7-(naphthalen-1-ylmethyl)-5-oxo-8-(3-(trifluoromethyl)phenyl)-2,3-dihydro-5H-thiazolo[3,2-a]pyridine-3-carboxylic acid 1-oxide]
IC50 [1]: > 10 µM | IC50 [2]: 77.5 µM

CCCN1CC(C(=O)O)n2c(c(-c3cccc(C(F)(F)F)c3)c(Cc3cccc4ccccc34)c(NC3CCOCC3)c2=O)S1(=O)=O (stereo not shown) [Compound 127, 8-(naphthalen-1-ylmethyl)-6-oxo-2-propyl-7-((tetrahydro-2H-pyran-4-yl)amino)-9-(3-(trifluoromethyl)phenyl)-3,4-dihydro-2H,6H-pyrido[1,2-e][1,2,5] thiadiazine-4-carboxylic acid 1,1-dioxide]
IC50 [1]: 4.6 to 10 µM | IC50 [2]: 4.8 µM

O=C(O)C1CN(CCCCO)S(=O)(=O)c2c(-c3cccc(C(F)(F)F)c3)c(Cc3cccc4ccccc34)c(NC3CCCC3)c(=O)n21 (stereo not shown) [Compound 121, 7-(cyclopentylamino)-2-(4-hydroxybutyl)-8-(naphthalen-1-ylmethyl)-6-oxo-9-(3-(trifluoromethyl)phenyl)-3,4-dihydro-2H,6H-pyrido[1,2-e][1,2,5]thiadiazine-4-carboxylic acid 1,1-dioxide]
IC50 [1]: 1.3 to 4.5 µM | IC50 [2]: 2 µM

CC(C)N1CC(C(=O)O)n2c(c(-c3cccc(C(F)(F)F)c3)c(Cc3cccc4ccccc34)c(NC3CCCC3)c2=O)S1(=O)=O (stereo not shown) [Compound 123, 7-(cyclopentylamino)-2-isopropyl-8-(naphthalen-1-ylmethyl)-6-oxo-9-(3-(trifluoromethyl)phenyl)-3,4-dihydro-2H,6H-pyrido[1,2-e][1,2,5]thiadiazine-4-carboxylic acid 1,1-dioxide]
IC50 [1]: 1.3 to 4.5 µM | IC50 [2]: 3.3 µM

CN1CC(C(N)=O)n2c(c(-c3cccc(C(F)(F)F)c3)c(Cc3cccc4ccccc34)cc2=O)S1(=O)=O (stereo not shown) [Compound 030, 2-methyl-8-(naphthalen-1-ylmethyl)-6-oxo-9-(3-(trifluoromethyl)phenyl)-3,4-dihydro-2H,6H-pyrido[1,2-e][1,2,5]thiadiazine-4-carboxamide 1,1-dioxide]
IC50 [1]: 4.6 to 10 µM | IC50 [2]: 5 µM

CN(C)CCN1CC(C(=O)O)n2c(c(-c3cccc(C(F)(F)F)c3)c(Cc3cccc4ccccc34)cc2=O)S1(=O)=O (stereo not shown) [Compound 017, 2-(2-(dimethylamino)ethyl)-8-(naphthalen-1-ylmethyl)-6-oxo-9-(3-(trifluoromethyl)phenyl)-3,4-dihydro-2H,6H-pyrido[1,2-e][1,2,5]thiadiazine-4-carboxylic acid 1,1-dioxide]
IC50 [1]: 1.3 to 4.5 µM | IC50 [2]: 2.7 µM

CCc1c(Cc2cccc3ccccc23)c(-c2cccc(C(F)(F)F)c2)c2n(c1=O)C(C(=O)O)CN(C1CCCCC1)S2(=O)=O (stereo not shown) [Compound 116, 2-cyclohexyl-7-ethyl-8-(naphthalen-1-ylmethyl)-6-oxo-9-(3-(trifluoromethyl)phenyl)-3,4-dihydro-2H,6H-pyrido[1,2-e][1,2,5]thiadiazine-4-carboxylic acid 1,1-dioxide]
IC50 [1]: 1.3 to 4.5 µM | IC50 [2]: 1.5 µM

O=C(O)C1CSc2c(-c3cccc(C(F)(F)F)c3)c(Cc3cccc4ccccc34)cc(=O)n21 (racemic) [Compound 011, 7-(naphthalen-1-ylmethyl)-5-oxo-8-(3-(trifluoromethyl)phenyl)-2,3-dihydro-5H-thiazolo[3,2-a]pyridine-3-carboxylic acid]
IC50 [1]: 4.6 to 10 µM | IC50 [2]: 5.8 µM

O=C(O)[C@@H]1CS(=O)(=O)c2c(-c3cccc(C(F)(F)F)c3)c(Cc3cccc4ccccc34)cc(=O)n21 (single isomer, unassigned) [Compound 010a, 7-(naphthalen-1-ylmethyl)-5-oxo-8-(3-(trifluoromethyl)phenyl)-2,3-dihydro-5H-thiazolo[3,2-a]pyridine-3-carboxylic acid 1,1-dioxide]
IC50 [1]: > 10 µM | IC50 [2]: 43.9 µM

CCN1CC(C(=O)O)n2c(c(-c3cccc(C(F)(F)F)c3)c(Cc3cccc4ccccc34)cc2=O)S1(=O)=O (single isomer, unassigned) [Compound 015a, 2-ethyl-8-(naphthalen-1-ylmethyl)-6-oxo-9-(3-(trifluoromethyl)phenyl)-3,4-dihydro-2H,6H-pyrido[1,2-e][1,2,5]thiadiazine-4-carboxylic acid 1,1-dioxide]
IC50 [1]: > 10 µM | IC50 [2]: 21.7 µM

CCCCCN1CC(C(=O)O)n2c(c(-c3cccc(C(F)(F)F)c3)c(Cc3cccc4ccccc34)cc2=O)S1(=O)=O (racemic) [Compound 025, 8-(naphthalen-1-ylmethyl)-6-oxo-2-pentyl-9-(3-(trifluoromethyl)phenyl)-3,4-dihydro-2H,6H-pyrido[1,2-e][1,2,5]thiadiazine-4-carboxylic acid 1,1-dioxide]
IC50 [1]: 1.3 to 4.5 µM | IC50 [2]: 1.9 µM

O=C(O)[C@H]1CS(=O)(=O)c2c(-c3cccc(C(F)(F)F)c3)c(Cc3cccc4ccccc34)cc(=O)n21 (single isomer, unassigned) [Compound 010b, 7-(naphthalen-1-ylmethyl)-5-oxo-8-(3-(trifluoromethyl)phenyl)-2,3-dihydro-5H-thiazolo[3,2-a]pyridine-3-carboxylic acid 1,1-dioxide]
IC50 [1]: > 10 µM | IC50 [2]: 58.5 µM

CN(C)Cc1c(Cc2cccc3ccccc23)c(-c2cccc(C(F)(F)F)c2)c2n(c1=O)C(C(=O)O)CS2 (stereo not shown) [Compound 075, 6-((dimethylamino)methyl)-7-(naphthalen-1-ylmethyl)-5-oxo-8-(3-(trifluoromethyl)phenyl)-2,3-dihydro-5H-thiazolo[3,2-a]pyridine-3-carboxylic acid]
IC50 [1]: 4.6 to 10 µM | IC50 [2]: 5.6 µM

NC(=O)CN1CC(C(=O)O)n2c(c(-c3cccc(C(F)(F)F)c3)c(Cc3cccc4ccccc34)cc2=O)S1(=O)=O (stereo not shown) [Compound 028, 2-(2-amino-2-oxoethyl)-8-(naphthalen-1-ylmethyl)-6-oxo-9-(3-(trifluoromethyl)phenyl)-3,4-dihydro-2H,6H-pyrido[1,2-e][1,2,5]thiadiazine-4-carboxylic acid 1,1-dioxide]
IC50 [1]: > 10 µM | IC50 [2]: 18.2 µM
